In patent US5700469A, “HIV-1 core protein fragments” (Medical Research Council, priority 1990, dated 1997):
Read-outs that look alike come from different tables or passages of the source. Where no end group is shown, it is not given here.

Tests used:
[1] = tested on: human leucocyte antigen (HLA) class I molecule; assay: CTL assay: lysis of 51-chromium labelled, HLA-matched B lymphoblastoid target cells sensitized with peptide; assay type: cell-based; conditions: for HLA restriction of the peptide (through one or more of the antigens): HLA restrictions not yet fully worked out
Protocol: Peptides in accordance with the invention can also be used for diagnostic purposes. […] Briefly, fresh peripheral blood mononuclear cells (or lymphocytes obtained from biopsy material) are prepared and added at ratios of 50:1, 25:1 and 10:1 to 10^4 51 -chromium labelled B lymphoblastoid cells matched for the relevant HLA molecules. The HLA type of patient is determined in known manner by tissue typing, and B lymphoblastoid cells obtained from a donor of known HLA type (again determined in known manner by tissue typing) and transformed with Epstein Barr using known techniques. A peptide in accordance with the invention, which interacts with the relevant HLA molecule, is also added to the cells in a concentration of 10 to 100 u molar. After 4 hours incubation the supernatant is removed and the released ^51 -chromium measured. The ^51 -chromium released is compared to that released by incubation of labelled cells in detergent, which gives a maximum value, and released by labelled cells incubated in medium alone, which gives a minimum value. If lysis (defined by ^51 -chromium released of at least two times the minimum value) is observed it means that there are cytotoxic T lymphocytes in the patients' mononuclear cells and these are likely to be indicative of infection with HIV.

[2] = tested on: human leucocyte antigen (HLA) class I molecule; conditions: disclosed in prior application EP 0346022; cited from earlier work

Substance | HLA restriction of the peptide (through one or more of the antigens) [1] | also measured
VQNANPDCKTILKALY [p24-20, NH2 -valine-glutamine-asparagine-alanine-asparagine-proline-aspartic acid-cysteine-lysine-threonine-isoleucine-leucine-lysine-alanine-leucine-tyrosine-COOH] |  | HLA class I molecule with which the peptide interacts specifically [1]: HLA B8; recognition of the peptide by a seropositive donor ([1]; seropositive donor, HLA type as printed): recognised by a seropositive donor of the HLA type HLA-A3, 29B44, 14
VHQAISPRTLNAWVKC [p24-2, NH2 -valine-histidine-glutamine-alanine-isoleucine-serine-proline-arginine-threonine-leucine-asparagine-alanine -tryptophan-valine-lysine-cysteine-COOH] | HLA-A23 or A30 or B8 | 
CVGGPGHKARVL [p24-23, NH2 -cysteine-valine-glycine-glycine-proline-glycine-histidine-lysine-alanine- arginine-valine-leucine-COOH] | LA-A1 or B7 or B8 | 
NH2 -lysine-arginine-tryptophan-isoleucine-isoleucine-leucine-glycine-leucine- asparagine-lysine-isoleucine-valine-arginine-methionine-tyrosine -cysteine-COOH [p24-14] |  | HLA class I molecule with which the peptide interacts specifically [2]: HLA B27
LEEMMTACQGVGGPGY [p24-22, NH2 -leucine-glutamic acid-glutamic acid-methionine-methionine-threonine-alanine-cysteine-glutamine-glycine -valine-glycine-glycine-proline-glycine-tyrosine-COOH] | HLA-A3 or A29 or B44 or B14 | 
DLNTMLNTVGGHQAAC [p24-6, NH2 -aspartic acid-leucine-asparagine-threonine-methionine-leucine-asparagine-threonine- valine-glycine-glycine -histidine-glutamine-alanine-alanine-cysteine-COOH] | HLA-A3 or A29 or B44 or B14 | 
